For 23 molecules, pest or weed control results are on record in patent US8895568B2, “Compositions comprising substituted pteridines as agrochemicals” (Dow AgroSciences LLC, priority 2009, dated 2014).

Common to all, as to type: in vivo
Assay [1] deals with DROSME, AEDSAE, LAPHEG, or HELIVI. The assay is described as follows: Insecticidal activity, active if any of DROSME, AEDSAE, LAPHEG or HELIVI was controlled at 80% or more. The note with it: read-out: >80% mortality on any insect species @ 4000 ppm.
Assay [2] deals with Pseudoperonospora cubensis. As to the kind of experiment: Cucumber Downy Mildew (PSPECU), foliar spray, percent disease control. Particulars: foliar, read-out: PSPECU percent control.
The test system of assay [3] is Cochliobolus sativus. The assay is described as follows: Spot Blotch of Wheat (COCHSA), foliar spray, percent disease control.
Assay [4] deals with Colletotricum lagenarium. The assay is described as follows: Cucumber Anthracnose (COLLLA), foliar spray, percent disease control. Particulars: foliar.
[5] abbreviates: Bipolaris sorokiniana, foliar; read-out: COCHSA percent control.

Molecules are shown by their SMILES. Like-named read-outs stand apart in the source and are kept apart here. A value given as a limit tells only on which side of the number the result lay.

On to `Fc1cc(F)c(Oc2ccc(CCNc3ncnc4nccnc34)cc2)nc1F` [Compound 150], for which, in assay [1], the pest or weed control at 4000 ppm was above 80%. Also, the pest or weed control at 200 µg/mL fell in the range of 80 to 100% in assay [2], 0 to 49% in assay [3] (setting [5]) and 0 to 49% in assay [4].

Take `Cc1ccnc(Oc2ccc(CCNc3ncnc4nccnc34)cc2)c1` [Compound 42]: the pest or weed control at 4000 ppm in assay [1] is above 80%. Besides, the values for the pest or weed control at 200 µg/mL in assay [2], in assay [3] (setting [5]) and in assay [4] were 80 to 100%, 0 to 49% and 80 to 100%, respectively.

Turning to `N#Cc1ccc(Oc2ccc(CCNc3ncnc4nccnc34)c(F)c2)nc1` [Compound 104], the pest or weed control at 4000 ppm in assay [1] was above 80%. Further, the pest or weed control at 200 µg/mL in assay [2] lay within 80 to 100%; in assay [3] (setting [5]) it was 0 to 49%; in assay [4] it was 0 to 49%.

For `FC(F)(F)c1cc(Cl)nc(Oc2ccc(CCNc3ncnc4nccnc34)cc2)c1` [Compound 90, {2-[4-(6-chloro-4-trifluoromethylpyridin-2-yloxy)-phenyl]-ethyl}-pteridin-4-yl-amine], the pest or weed control at 4000 ppm in assay [1] is above 80%. The pest or weed control at 200 µg/mL in assay [2] lay within 80 to 100%; in assay [3] (setting [5]), 0 to 49%; in assay [4], 0 to 49%.

With `CCCOc1cc(CCNc2ncnc3nccnc23)ccc1Oc1cc(C(F)(F)F)ccn1` [Compound 188], the pest or weed control at 4000 ppm in assay [1] is above 80%. Further, the pest or weed control at 200 µg/mL in assay [2] lay in the range of 80 to 100%; in assay [3] (setting [5]), 0 to 49%; in assay [4], 80 to 100%.

On to `Cc1cccnc1Oc1ccc(CCNc2ncnc3nccnc23)cc1` [Compound 43], for which, in assay [1], the pest or weed control at 4000 ppm was above 80%. In addition, the values for the pest or weed control at 200 µg/mL in assay [2], in assay [3] (setting [5]) and in assay [4] were 80 to 100%, 0 to 49% and 0 to 49%, respectively.

Take `Fc1nc(Oc2ccc(CCNc3ncnc4nccnc34)cc2)c(F)c(C(F)(F)F)c1F` [Compound 138, Pteridin-4-yl-{2-[4-(3,5,6-trifluoro-4-trifluoromethyl-pyridin-2-yloxy)-phenyl]-ethyl}-amine]: the pest or weed control at 4000 ppm in assay [1] is above 80%. Further, the values for the pest or weed control at 200 µg/mL in assay [2], in assay [3] (setting [5]) and in assay [4] were 80 to 100%, 0 to 49% and 80 to 100%, respectively.

As for `FC(F)(F)c1nc(Oc2ccc(CCNc3ncnc4nccnc34)cc2)ccc1Cl` [Compound 92], in assay [1], the pest or weed control at 4000 ppm is above 80%. Further, the figures for the pest or weed control at 200 µg/mL in assay [2], in assay [3] (setting [5]) and in assay [4] were 80 to 100%, 0 to 49% and 0 to 49%, respectively.

Turning to `c1cnc(Oc2ccc(CCNc3ncnc4nccnc34)cc2)cn1` [Compound 28], in assay [1], the pest or weed control at 4000 ppm was above 80%. Further, the values for the pest or weed control at 200 µg/mL in assay [2], in assay [3] (setting [5]) and in assay [4] were 80 to 100%, 0 to 49% and 0 to 49%, respectively.

Take `Cc1cnc2ncnc(NCCc3ccc(Oc4cc(C(F)(F)F)ccn4)cc3)c2n1` [Compound 76]: the pest or weed control at 4000 ppm in assay [1] is above 80%. Further, the pest or weed control at 200 µg/mL fell in the range of 80 to 100% in assay [2], 0 to 49% in assay [3] (setting [5]) and 0 to 49% in assay [4].

As for `COc1ccnc(Oc2ccc(CCNc3ncnc4nccnc34)cc2)c1` [Compound 95], the pest or weed control at 4000 ppm in assay [1] is above 80%. The pest or weed control at 200 µg/mL in assay [2] was in the range of 80 to 100%; in assay [3] (setting [5]), 0 to 49%; in assay [4], 80 to 100%.

Turning to `CC(C)c1ccc(Oc2ccc(CCNc3ncnc4nccnc34)cc2)cc1` [Compound 132, {2-[4-(4-Isopropylphenoxy)-phenyl]-ethyl}-pteridin-4-yl-amine], in assay [1], the pest or weed control at 4000 ppm is above 80%. Also, the pest or weed control at 200 µg/mL lay within 80 to 100% in assay [2], 0 to 49% in assay [3] (setting [5]) and 0 to 49% in assay [4].

On to `FC(F)(F)c1ccnc(Oc2ccc(CCNc3ncnc4ncc(Cl)nc34)cc2)n1` [Compound 75], for which, in assay [1], the pest or weed control at 4000 ppm is above 80%. Besides, the pest or weed control at 200 µg/mL in assay [2], in assay [3] (setting [5]) and in assay [4] was 0 to 49% in each case.

For the molecule `FC(F)(F)COc1ccnc(Oc2ccc(CCNc3ncnc4nccnc34)cc2)c1` [Compound 96, Pteridin-4-yl-(2-{4-[4-(2,2,2-trifluoroethoxy)-pyridin-2-yloxy]-phenyl}-ethyl)-amine], the pest or weed control at 4000 ppm in assay [1] was above 80%. For the same molecule, the pest or weed control at 200 µg/mL in assay [2] was 80 to 100%; in assay [3] (setting [5]), 0 to 49%; in assay [4], 0 to 49%.

Turning to `Cc1cc(Oc2ccc(C(F)(F)F)cn2)c(C)cc1CCNc1ncnc2nccnc12` [Compound 156], the pest or weed control at 4000 ppm in assay [1] was above 80%. Besides, the pest or weed control at 200 µg/mL fell in the range of 80 to 100% in assay [2], 0 to 49% in assay [3] (setting [5]) and 0 to 49% in assay [4].

Turning to `Fc1cc(C(F)(F)F)cnc1Oc1ccc(CCNc2ncnc3ncc(Cl)nc23)cc1` [Compound 118], the pest or weed control at 4000 ppm in assay [1] was above 80%. In addition, the pest or weed control at 200 µg/mL in assay [2], in assay [3] (setting [5]) and in assay [4] was 0 to 49% throughout.

Consider `FC(F)(F)c1cccc(-c2ccc(CCNc3ncnc4nccnc34)cc2)c1` [Compound 122], for which the pest or weed control at 4000 ppm in assay [1] was above 80%. Also, the pest or weed control at 200 µg/mL is 50 to 79% in assay [2]; 0 to 49% in assay [3] (Bipolaris sorokiniana, foliar, read-out: COCHSA percent control); 0 to 49% in assay [4].

As for `Cc1nnsc1Oc1ccc(CCNc2ncnc3nccnc23)cc1` [Compound 59], the pest or weed control at 4000 ppm in assay [1] was above 80%. Moreover, the pest or weed control at 200 µg/mL in assay [2], in assay [3] (setting [5]) and in assay [4] was 0 to 49% in each case.

Turning to `COc1cccc(Oc2ccc(CCNc3ncnc4nccnc34)cc2)n1` [Compound 10, {2-[4-(6-Methoxypyridin-2-yloxy)-phenyl]-ethyl}-pteridin-4-yl-amine], the pest or weed control at 4000 ppm in assay [1] is above 80%. The results for the pest or weed control at 200 µg/mL in assay [2], in assay [3] (setting [5]) and in assay [4] were 80 to 100%, 0 to 49% and 0 to 49%, respectively.

With `FC(F)(F)c1ccc(Oc2ccc(OCCNc3ncnc4nccnc34)cc2)nc1` [Compound 84], the pest or weed control at 4000 ppm in assay [1] is above 80%. For the same molecule, the pest or weed control at 200 µg/mL in assay [2] was in the range of 80 to 100%; in assay [3] (setting [5]) it was 0 to 49%; in assay [4] it was 80 to 100%.

As for `Cc1cnc2ncnc(NCCc3ccc(Oc4cncc(Cl)c4C#N)cc3)c2n1` [Compound 120], the pest or weed control at 4000 ppm in assay [1] was above 80%. The pest or weed control at 200 µg/mL in assay [2], in assay [3] (setting [5]) and in assay [4] was 0 to 49% each time.

`FC(F)c1ccnc(Oc2ccc(CCNc3ncnc4nccnc34)cc2)c1` [Compound 101]: the pest or weed control at 4000 ppm in assay [1] was above 80%. Besides, the pest or weed control at 200 µg/mL in assay [2] was 80 to 100%; in assay [3] (setting [5]), 0 to 49%; in assay [4], 80 to 100%.

Turning to `N#Cc1ccnc(Oc2ccc(CCNc3ncnc4nccnc34)cc2)c1` [Compound 8], the pest or weed control at 4000 ppm in assay [1] was above 80%. Besides, the pest or weed control at 200 µg/mL in assay [2] lay within 80 to 100%; in assay [3] (setting [5]), 0 to 49%; in assay [4], 80 to 100%.
